{
  "source": "patent US20240027453A1",
  "about": "“METHOD FOR DETECTION AND QUANTITATIVE MONITORING OF INFECTIONS WITH HERPESVIRUSES” (The Trustees of Princeton University, priority 2020, published 2024)",
  "test_system": "HCMV",
  "format": "cell-based",
  "conditions": "DE",
  "procedure": "In example herpesvirus PRM assay methods shown herein, cell pellets were lysed in 2% SDS, 100 mM NaCl, 0.5 mM EDTA, 50 mM Tris, pH 8.2, and 50 μg of protein was reduced and alkylated with 25 mM TCEP and 50 mM CAM respectively for 20 min at 70° C. Proteins were then precipitated via methanol chloroform precipitation (Wessel & Flugg, Anal Biochem. 138(1):141-143, 1984), resuspended in 50 mM HEPES, pH 8.2 and digested overnight with trypsin (50:1 protein:enzyme w/w ratio). Digested peptides were desalted by SDB-RPS StageTip as previously described (Lum et al., Cell Syst., 7(6):[…], 2018; Greco et al., Methods Mol Biol 1410:39-63, 2016; Federspiel & Cristea, Methods Mol Biol., 1977:115-143, 2019).\nPeptides (1.0 μg on column) were analyzed by LC-MS/MS using a Dionex Ultimate 3000 UHPLC coupled online to an EASYSpray ion source and a Q Exactive HF. Peptides were separated on an EASYSpray C18 column (75 μm×25 cm) heated to 50° C. using a linear gradient of 5% B to 32% B over 60 min at a flow rate of 250 nL/min and were ionized at 1.7 kv. Mobile phase A consisted of 0.1% FA in H2O and mobile phase B consisted of 0.1% FA, 2.9% H2O in ACN.\nThe PRM method was controlled by a peptide inclusion list with retention time windows of 6 min for selected precursor ions.\nThe PRM assay was developed and analyzed using the open-source software Skyline (Maclean et al., Bioinformatics 26(7):966-968, 2010). Summed area under the curve of 3-4 transitions per peptide was used for quantitation. Targeted peptides were normalized to host protein loading control peptides. Peptide values for each sample were scaled to the average of each peptide across all runs. The average of multiple peptides was used as the inferred value for the protein measurement when more than one peptide was quantified (Federspiel et al., PLoS Biol. 17(9):e3000437. Doi: 10.1371/journal.pbio.3000437). PRM quantitation data were graphed using the Python Seaborn and Matplotlib libraries.\nMRC5 primary human fibroblasts (HFs) (ATCC CCL-171) were used as the model system for HSV-1 and HCMV infections and were cultured in complete growth medium (DMEM supplemented with 10% fetal bovine serum and 1% penicillin-streptomycin antibiotics) at 37° C. and 5% CO2. iSLK.219 cells harboring latent KSHV (a gift from Dr. Britt Glaunsinger, University of California, Berkeley) were grown in complete growth medium supplemented with 500 μg/ml hygromycin (ThermoFisher Scientific, 10687010) at 37° C. and 5% CO2. All cells were used for experiments within a maximum of 10 passages.\nWild type HSV-1 strain 17+ (a gift from Beate Sodeik, Hannover Medical School, Hannover, Germany) was propagated as previously described (Diner et al., 2015). Briefly, PO stocks were generated by electroporating pBAC-HSV-1 into U-2 OS cells. […] In a similar manner, wild type HCMV strain AD169 was produced from BAC electroporation into HFs and working stocks were propagated by infecting HFs at a low level. In both cases, cell-associated virus was released by sonication, combined with supernatant virus, then concentrated by ultracentrifugation (20,000 rpm, 2 hours, 4° C. with SW28 swinging bucket rotor [Beckman Coulter]) over a 10% ficoll (HSV-1) or 20% sorbitol (HCMV) cushion. Virus stock titers were determined by plaque assay for HSV-1 or tissue culture infectious dose (TCID50) for HCMV and infections were performed at a multiplicity of infection (MOI) of 3.\n12 hours prior to virus infection or reactivation, cells were treated with either the small molecule drug or DMSO/PBS control at an equivalent volume. […] For infection cycles lasting longer than 24 hours, small molecule drugs were re-added to the cell culture medium every 24 hours. Upon collection, cells were rinsed with PBS, scraped into a microcentrifuge tube, pelleted by centrifugation, and rinsed again with PBS.",
  "note": "Where two headings read alike, the source gives them in different places.",
  "data": [
    {"smiles": "Nc1ccn(C[C@@H](CO)OCP(=O)(O)O)c(=O)n1", "note": "[CDV, cidofovir]", "values": [
      {"measurement": "UL71 (P16823) protein, numerical value of heatmap FIG. 6C", "setting": "timepoint 48", "value": 0.3899},
      {"measurement": "UL78 (P16751) protein, numerical value of heatmap FIG. 6C", "setting": "timepoint 48", "value": 0.6533},
      {"measurement": "UL84 (P16727) protein, numerical value of heatmap FIG. 6C", "setting": "timepoint 48", "value": 0.1297},
      {"measurement": "UL95 (P16801) protein, numerical value of heatmap FIG. 6C", "setting": "timepoint 48", "value": 0.1215},
      {"measurement": "UL96 (P16787) protein, numerical value of heatmap FIG. 6C", "setting": "timepoint 48", "value": 0.3595},
      {"measurement": "UL97 (P16788) protein, numerical value of heatmap FIG. 6C", "setting": "timepoint 48", "value": 0.2502},
      {"measurement": "UL98 (P16789) protein, numerical value of heatmap FIG. 6C", "setting": "timepoint 48", "value": 0.3561},
      {"measurement": "UL102 (P16827) protein, numerical value of heatmap FIG. 6C", "setting": "timepoint 48", "value": 0.7853},
      {"measurement": "UL104 (P16735) protein, numerical value of heatmap FIG. 6C", "setting": "timepoint 48", "value": 0.06237},
      {"measurement": "UL112/UL113 (P17151) protein, numerical value of heatmap FIG. 6C", "setting": "timepoint 48", "value": 0.5163},
      {"measurement": "UL114 (P16769) protein, numerical value of heatmap FIG. 6C", "setting": "timepoint 48", "value": 0.6429},
      {"measurement": "UL119/UL118 (P16739) protein, numerical value of heatmap FIG. 6C", "setting": "timepoint 48", "value": 0.3879},
      {"measurement": "UL128 (P16837) protein, numerical value of heatmap FIG. 6C", "setting": "timepoint 48", "value": 0.163},
      {"measurement": "US8 (P09730) protein, numerical value of heatmap FIG. 6C", "setting": "timepoint 48", "value": 0.9091},
      {"measurement": "US9 (P09729) protein, numerical value of heatmap FIG. 6C", "setting": "timepoint 48", "value": 0.6112},
      {"measurement": "US12 (P09721) protein, numerical value of heatmap FIG. 6C", "setting": "timepoint 48", "value": 0.7192},
      {"measurement": "US13 (P09720) protein, numerical value of heatmap FIG. 6C", "setting": "timepoint 48", "value": 0.7254},
      {"measurement": "US14 (P09719) protein, numerical value of heatmap FIG. 6C", "setting": "timepoint 48", "value": 0.2849},
      {"measurement": "US18 (P69334) protein, numerical value of heatmap FIG. 6C", "setting": "timepoint 48", "value": 0.7625},
      {"measurement": "US22 (P09722) protein, numerical value of heatmap FIG. 6C", "setting": "timepoint 48", "value": 0.4007},
      {"measurement": "US23 (P09701) protein, numerical value of heatmap FIG. 6C", "setting": "timepoint 48", "value": 0.4974},
      {"measurement": "US24 (P09700) protein, numerical value of heatmap FIG. 6C", "setting": "timepoint 48", "value": 0.4753},
      {"measurement": "gB (P06473) protein, numerical value of heatmap FIG. 6C", "setting": "timepoint 48", "value": 0.1893},
      {"measurement": "sp|P09710|IR01_HCMVA (P09710) protein, numerical value of heatmap FIG. 6C", "setting": "timepoint 48", "value": 0.2164},
      {"measurement": "CVC2 (P16726) protein, numerical value of heatmap FIG. 6C", "setting": "timepoint 72", "value": 0.2298},
      {"measurement": "DBP (P17147) protein, numerical value of heatmap FIG. 6C", "setting": "timepoint 72", "value": 0.7802},
      {"measurement": "HELI (P16736) protein, numerical value of heatmap FIG. 6C", "setting": "timepoint 72", "value": 0.7131},
      {"measurement": "NEC1 (P16794) protein, numerical value of heatmap FIG. 6C", "setting": "timepoint 72", "value": 0.2456},
      {"measurement": "NEC2 (P16791) protein, numerical value of heatmap FIG. 6C", "setting": "timepoint 72", "value": 0.6919},
      {"measurement": "RIR1 (P16782) protein, numerical value of heatmap FIG. 6C", "setting": "timepoint 72", "value": 0.443},
      {"measurement": "TRM1 (P16724) protein, numerical value of heatmap FIG. 6C", "setting": "timepoint 72", "value": 0.5444},
      {"measurement": "UL4 (P17146) protein, numerical value of heatmap FIG. 6C", "setting": "timepoint 72", "value": 0.08145},
      {"measurement": "UL26 (P16762) protein, numerical value of heatmap FIG. 6C", "setting": "timepoint 72", "value": 0.4973},
      {"measurement": "UL32 (P08318) protein, numerical value of heatmap FIG. 6C", "setting": "timepoint 72", "value": 0.2303},
      {"measurement": "UL34 (P16812) protein, numerical value of heatmap FIG. 6C", "setting": "timepoint 72", "value": 0.5754},
      {"measurement": "UL35 (P16766) protein, numerical value of heatmap FIG. 6C", "setting": "timepoint 72", "value": 0.3346},
      {"measurement": "UL38 (P16779) protein, numerical value of heatmap FIG. 6C", "setting": "timepoint 72", "value": 0.9343},
      {"measurement": "UL44 (P16790) protein, numerical value of heatmap FIG. 6C", "setting": "timepoint 72", "value": 0.5197},
      {"measurement": "UL48 (P16785) protein, numerical value of heatmap FIG. 6C", "setting": "timepoint 72", "value": 0.4665},
      {"measurement": "UL54 (P08546) protein, numerical value of heatmap FIG. 6C", "setting": "timepoint 72", "value": 1.149},
      {"measurement": "UL71 (P16823) protein, numerical value of heatmap FIG. 6C", "setting": "timepoint 72", "value": 0.768},
      {"measurement": "UL78 (P16751) protein, numerical value of heatmap FIG. 6C", "setting": "timepoint 72", "value": 1.048},
      {"measurement": "UL84 (P16727) protein, numerical value of heatmap FIG. 6C", "setting": "timepoint 72", "value": 0.3948},
      {"measurement": "UL95 (P16801) protein, numerical value of heatmap FIG. 6C", "setting": "timepoint 72", "value": 0.3335},
      {"measurement": "UL96 (P16787) protein, numerical value of heatmap FIG. 6C", "setting": "timepoint 72", "value": 0.5111},
      {"measurement": "UL97 (P16788) protein, numerical value of heatmap FIG. 6C", "setting": "timepoint 72", "value": 0.5258},
      {"measurement": "UL98 (P16789) protein, numerical value of heatmap FIG. 6C", "setting": "timepoint 72", "value": 0.6741},
      {"measurement": "UL102 (P16827) protein, numerical value of heatmap FIG. 6C", "setting": "timepoint 72", "value": 1.111},
      {"measurement": "UL104 (P16735) protein, numerical value of heatmap FIG. 6C", "setting": "timepoint 72", "value": 0.4852},
      {"measurement": "UL112/UL113 (P17151) protein, numerical value of heatmap FIG. 6C", "setting": "timepoint 72", "value": 0.7131},
      {"measurement": "UL114 (P16769) protein, numerical value of heatmap FIG. 6C", "setting": "timepoint 72", "value": 1.008}
    ]}
  ]
}
